The source of these data is PubChem BioAssay (NCI).

Molecules are shown by their SMILES.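 Growth conditions: 96-well plates. Treatment: test compound, 48 hours, 5 concentrations. Analysis: linear interpolation between bracketing concentrations; unreached endpoints set to highest concentration. GI50 marks 50% less growth. TGI: concentration producing complete growth inhibition.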

The first experiment concerns U251 CNS. Briefly: growth of human tumour cells (NCI), 48 h.
The molecule `Clc1ccc(C(c2ccc(Cl)cc2)c2ccccn2)cc1` gave a TGI of 30.9 µM.

Molecule `CC(C)=Cc1cc(C(=O)Nc2ccc(Cl)c(Cl)c2)nc(N)n1` returned a TGI of over 100 µM.

Consider `CCN1CCN(c2nc(C)cc(N(CCNc3ccnc4cc(Cl)ccc34)Cc3ccc4c(c3)OCO4)n2)CC1`, for which the GI50 was 1.56 µM and the TGI was 3.12 µM.

As to `Cn1cnc([N+](=O)[O-])c1Sc1nc2ccccc2[nH]1`, the TGI is 74.5 µM.

With `CCCCCCN(CCCCCC)C(=O)Cc1c2n(c3ccccc13)Cc1ccccc1-2`, the TGI is over 100 µM.

On to `COc1cc(NCc2ccc3oc(=O)c(-c4ccccc4)nc3c2)cc(OC)c1OC`, for which the TGI is over 10 µM.

`CC(=O)OC1COC(n2ccc3cc(Br)c([N+](=O)[O-])cc32)C(OC(C)=O)C1OC(C)=O` (stereo not drawn) showed a TGI of 56 µM.

`CCOC(=O)NC(=O)c1cn(CCCO)c(=O)[nH]c1=O`: the TGI was over 100 µM.

Molecule `CN(C)c1nc(=Nc2ccc(N=c3nc(N(C)C)ss3)cc2)ss1` came in with a TGI of over 49.8 µM.

Molecule `CCCC(=O)OC1CC(n2cc(F)c(=O)[nH]c2=O)OC1COP(=O)(OCC(Cl)(Cl)Cl)OCC(Cl)(Cl)Cl` (stereo not drawn) gave a TGI of over 78.8 µM.

Consider `O=[N+]([O-])C(/C=C(\Cl)n1nnc2ccccc21)=C(/Cl)n1nnc2ccccc21`, for which the TGI is over 100 µM.

For `CCc1cc(Cc2cc(CC)c(NC(=O)C(=O)Cc3ccccn3)c(CC)c2Cl)c(Cl)c(CC)c1NC(=O)C(=O)Cc1ccccn1`, the TGI came to 46.1 µM.

Take `C[Si](C)(C)C1(Sc2ccccc2)SCCCS1`: the TGI is over 100 µM.

`c1ccc(COc2cccc3ccc[n+](Cc4ccccc4)c23)cc1` gave a TGI of over 100 µM.

`CC1(C)C2CCC(=O)C1CC2` (stereo not drawn) returned a TGI of over 100 µM.

For the molecule `CCOC(=O)C(=C=C=C(c1ccccc1)c1ccccc1)C(=O)OCC`, the TGI was found to be 33.2 µM.

The molecule `CC1=CC(O)(c2ccc(-c3ccccc3Cl)cc2)OC1=O` (stereo not drawn) had a TGI of over 100 µM.

In turn, `C/C(=N\NC(=S)NC(CCC(=O)O)C(=O)O)c1ccccn1` (stereo not drawn) yielded a TGI of over 100 µM.

The molecule `C#CC1(O)CCC2C3CCc4cc(Oc5nc(F)nc(-c6c7ccccc7c7sc8ccccc8n67)n5)ccc4C3CC[C@@]21C` (stereo partly drawn) yielded a TGI of over 100 µM.

On to `Cc1cccc2c1CC1(C2)Cc2c(C)cccc2C1=O` (stereo not drawn), for which the TGI came out at 65.4 µM.

For the molecule `Cc1c2c(nn1-c1ccc(S(=O)(=O)/N=C3\SCCC(=O)N3c3ccccc3)cc1)-c1ccccc1CC2`, the GI50 is over 100 µM and the TGI is over 100 µM.

The molecule `Cc1ccc(NC(=O)c2cc3cc(N=Nc4ccccc4C(=O)O)ccc3oc2=O)cc1` yielded a TGI of over 100 µM.

Molecule `COc1ccc(S(=O)(=O)NNS(C)(=O)=O)cc1` gave a TGI of over 100 µM.

`O=C(/C=C\c1ccc(Cl)c(Cl)c1)c1ccc(Cl)cc1Cl` yielded a TGI of 40.6 µM.

`O=C1NCC2(CCN(CCCC3(c4ccc(F)cc4)OCCO3)CC2)N1c1ccccc1` displayed a TGI of over 100 µM.

`CCN(CC)/C(SCc1ccccc1)=C(\C(Cl)=C(Cl)Cl)[N+](=O)[O-]` returned a TGI of 49 µM.

In turn, `CC(=O)/C(=C\c1cccc([N+](=O)[O-])c1)C(=O)Nc1ccccc1C` had a TGI of over 100 µM.

`CCN1c2ccccc2C(C(SC)S(=O)(=O)c2ccc(C)cc2)c2c1[nH]c(=O)n(C)c2=O` (stereo not drawn): the TGI is over 100 µM.

Turning to `COC(OC)C(C)CC(=O)N(C)C` (stereo not drawn), the TGI is over 100 µM.

The subject of the next experiment is UACC-257 melanoma. Briefly: growth of human tumour cells (NCI), 48 h.
Molecule `O=c1cc(-c2ccccc2)oc2cc(OCCCOc3ccc4c(=O)cc(-c5ccccc5)oc4c3)ccc12` registered a TGI of over 100 µM.

`Clc1ccc(C(c2ccc(Cl)cc2)c2ccccn2)cc1` gave a TGI of 37.9 µM.

On to `CC(C)=Cc1cc(C(=O)Nc2ccc(Cl)c(Cl)c2)nc(N)n1`, for which the TGI is over 100 µM.

As for `CCN1CCN(c2nc(C)cc(N(CCNc3ccnc4cc(Cl)ccc34)Cc3ccc4c(c3)OCO4)n2)CC1`, the GI50 is 1.83 µM and the TGI came out at 3.6 µM.

`Cn1cnc([N+](=O)[O-])c1Sc1nc2ccccc2[nH]1`: the TGI was found to be 34.4 µM.

`CCCCCCN(CCCCCC)C(=O)Cc1c2n(c3ccccc13)Cc1ccccc1-2` returned a TGI of over 100 µM.

On to `COc1cc(NCc2ccc3oc(=O)c(-c4ccccc4)nc3c2)cc(OC)c1OC`, for which the TGI is over 10 µM.

Turning to `CC(=O)OC1COC(n2ccc3cc(Br)c([N+](=O)[O-])cc32)C(OC(C)=O)C1OC(C)=O` (stereo not drawn), the TGI was determined as 52 µM.

For `CCOC(=O)NC(=O)c1cn(CCCO)c(=O)[nH]c1=O`, the TGI is over 100 µM.

`CN(C)c1nc(=Nc2ccc(N=c3nc(N(C)C)ss3)cc2)ss1` registered a TGI of over 91.4 µM.

`CCCC(=O)OC1CC(n2cc(F)c(=O)[nH]c2=O)OC1COP(=O)(OCC(Cl)(Cl)Cl)OCC(Cl)(Cl)Cl` (stereo not drawn) yielded a TGI of over 92 µM.

`O=[N+]([O-])C(/C=C(\Cl)n1nnc2ccccc21)=C(/Cl)n1nnc2ccccc21` returned a TGI of over 100 µM.

On to `CCc1cc(Cc2cc(CC)c(NC(=O)C(=O)Cc3ccccn3)c(CC)c2Cl)c(Cl)c(CC)c1NC(=O)C(=O)Cc1ccccn1`, for which the TGI was over 100 µM.

In turn, `C[Si](C)(C)C1(Sc2ccccc2)SCCCS1` gave a TGI of over 100 µM.

The molecule `c1ccc(COc2cccc3ccc[n+](Cc4ccccc4)c23)cc1` had a TGI of 6.34 µM.

The molecule `CC1(C)C2CCC(=O)C1CC2` (stereo not drawn) registered a TGI of over 100 µM.

`O=S1(=O)OCCOS(=O)(=O)C1Br`: the TGI was over 100 µM.

Take `CCOC(=O)C(=C=C=C(c1ccccc1)c1ccccc1)C(=O)OCC`: the TGI was 33.4 µM.

For `CC1=CC(O)(c2ccc(-c3ccccc3Cl)cc2)OC1=O` (stereo not drawn), the TGI is over 100 µM.

`C/C(=N\NC(=S)NC(CCC(=O)O)C(=O)O)c1ccccn1` (stereo not drawn) had a TGI of over 100 µM.

For `C#CC1(O)CCC2C3CCc4cc(Oc5nc(F)nc(-c6c7ccccc7c7sc8ccccc8n67)n5)ccc4C3CC[C@@]21C` (stereo partly drawn), the TGI is over 100 µM.

For the molecule `Cc1cccc2c1CC1(C2)Cc2c(C)cccc2C1=O` (stereo not drawn), the TGI turned out to be 63.5 µM.

Turning to `Cc1c2c(nn1-c1ccc(S(=O)(=O)/N=C3\SCCC(=O)N3c3ccccc3)cc1)-c1ccccc1CC2`, the GI50 is over 100 µM and the TGI was over 100 µM.

Take `Cc1ccc(NC(=O)c2cc3cc(N=Nc4ccccc4C(=O)O)ccc3oc2=O)cc1`: the TGI was found to be 59.4 µM.

For `COc1ccc(S(=O)(=O)NNS(C)(=O)=O)cc1`, the TGI was over 100 µM.

As for `O=C(/C=C\c1ccc(Cl)c(Cl)c1)c1ccc(Cl)cc1Cl`, the TGI amounted to 36.5 µM.

`O=C1NCC2(CCN(CCCC3(c4ccc(F)cc4)OCCO3)CC2)N1c1ccccc1` registered a TGI of over 100 µM.

Consider `CCN(CC)/C(SCc1ccccc1)=C(\C(Cl)=C(Cl)Cl)[N+](=O)[O-]`, for which the TGI amounted to 31.8 µM.

In turn, `CC(=O)/C(=C\c1cccc([N+](=O)[O-])c1)C(=O)Nc1ccccc1C` yielded a TGI of over 100 µM.

On to `CCN1c2ccccc2C(C(SC)S(=O)(=O)c2ccc(C)cc2)c2c1[nH]c(=O)n(C)c2=O` (stereo not drawn), for which the TGI was over 100 µM.
